Results on nine compounds are retold here after patent publication US7150969B2 (Rosetta Inpharmatics LLC, priority 2004, dated 2006).

In one assay the test system is ACCs from plants. The following applies: cited from earlier work.
In assay [1] the target is T1, ACC1 (Homo sapiens, UniProt Q13085).
T1 construct: to produce a full length ACC1 cDNA clone; V5-His (vector pcDNA5/FRT/V5-His TOPO) (C); made in house; host or cells: Sf9 insect cells (baculovirus, pBacPAK9)
Description: 14CO2 fixation ACC activity assay, ACC1. The format is biochemical. The settings on record: 37° C., 40 minutes, pH 7.5, 20 mM citrate; read-out: Km of ACC1 against substrate. As to the method: ACC1 clone from Example 2 was digested with AvrII and PmeI restriction enzymes and then subcloned into pBacPAK9 (BD Biosciences, Mountainview, Calif.) transfer vector, which was then digested with XbaI and StuI for generating baculovirus. The viral particles were generated in Sf9 insect cells using the reagents and instructions provided by the BacPAK Baculovirus Expression System (BD Biosciences, Mountainview, Calif.).
The Sf9 cells were grown in Grace's Insect Cell Culture Medium (Invitrogen, Carlsbad, Calif.) containing 10% fetal bovine serum, 0.1 mg/ml kanamicin, and 0.1% PLURONIC® F-68 (Invitrogen, Carlsbad, Calif.) at 30° C. and 5% CO2. […]
(§1) The following protein extraction and purification procedures were performed at 4° C. unless noted. […] The remaining proteins were eluted from the column by imidazole at 0–500 mM, and the elution fractions were monitored by spectrophotometry at 280 nm. ACC1, ACC2, and ACC2sv1 protein and activity in each fraction were measured.
(§2) ACC1, ACC2, and ACC2sv1 activity were measured by a standard ^14CO2 fixation assay that measures the incorporation of [^14C]bicarbonate into [^14C]malonyl-CoA, and separates the product from unused substrate at the end of the reaction through acidification, which serves to both quench the reaction and remove residual radiolabeled substrate as ^14CO2. […]

Assay [2] has as its target T2, ACC2 (Homo sapiens, UniProt O00763).
T2 construct: V5-His (vector pcDNA5/FRT/V5-His TOPO) (C); made in house; host or cells: mouse mammary carcinoma cell line FM-3A (pEF vector, G418 selection)
Description: 14CO2 fixation ACC activity assay, ACC2. The class given is biochemical. The settings on record: 37° C., 40 minutes, pH 7.5, 20 mM citrate; read-out: Km of ACC2 against substrate.
Description: (§3) ACC2 and ACC2sv1 clones from cloning Method 2 of Example 2 were digested with AvrII and PmeI restriction enzymes and then subcloned into pEF cDNA expression vector (Invitrogen, Carlsbad, Calif.) which was digested by SpeI and EcoRV. The ACC2 and ACC2sv1 expression vectors were introduced into a mouse mammary carcinoma cell line FM-3A (RIKEN cell bank, #RCB0086) using the Lipofectaimine 2000 (Invitrogen, Carlsbad, Calif.) or Effectene Transfection Reagent (Qiagen, Hilden, Germany), according to manufacturer's instructions. […] ACC2 and ACC2sv1 protein levels were measured by Western blot analysis using HRP-conjugated streptavidin (Invitrogen, Carlsbad, Calif.). […]
as §1, §2

The target of a further assay is T3, ACC2sv1 (Homo sapiens, UniProt O00763, V2141I).
T3 construct: to yield a full-length ACC2sv1 clone; made in house; host or cells: mouse mammary carcinoma cell line FM-3A (pEF vector, G418 selection)
T3 sequence (O00763 1-2256 isoform O00763-3 V1939I): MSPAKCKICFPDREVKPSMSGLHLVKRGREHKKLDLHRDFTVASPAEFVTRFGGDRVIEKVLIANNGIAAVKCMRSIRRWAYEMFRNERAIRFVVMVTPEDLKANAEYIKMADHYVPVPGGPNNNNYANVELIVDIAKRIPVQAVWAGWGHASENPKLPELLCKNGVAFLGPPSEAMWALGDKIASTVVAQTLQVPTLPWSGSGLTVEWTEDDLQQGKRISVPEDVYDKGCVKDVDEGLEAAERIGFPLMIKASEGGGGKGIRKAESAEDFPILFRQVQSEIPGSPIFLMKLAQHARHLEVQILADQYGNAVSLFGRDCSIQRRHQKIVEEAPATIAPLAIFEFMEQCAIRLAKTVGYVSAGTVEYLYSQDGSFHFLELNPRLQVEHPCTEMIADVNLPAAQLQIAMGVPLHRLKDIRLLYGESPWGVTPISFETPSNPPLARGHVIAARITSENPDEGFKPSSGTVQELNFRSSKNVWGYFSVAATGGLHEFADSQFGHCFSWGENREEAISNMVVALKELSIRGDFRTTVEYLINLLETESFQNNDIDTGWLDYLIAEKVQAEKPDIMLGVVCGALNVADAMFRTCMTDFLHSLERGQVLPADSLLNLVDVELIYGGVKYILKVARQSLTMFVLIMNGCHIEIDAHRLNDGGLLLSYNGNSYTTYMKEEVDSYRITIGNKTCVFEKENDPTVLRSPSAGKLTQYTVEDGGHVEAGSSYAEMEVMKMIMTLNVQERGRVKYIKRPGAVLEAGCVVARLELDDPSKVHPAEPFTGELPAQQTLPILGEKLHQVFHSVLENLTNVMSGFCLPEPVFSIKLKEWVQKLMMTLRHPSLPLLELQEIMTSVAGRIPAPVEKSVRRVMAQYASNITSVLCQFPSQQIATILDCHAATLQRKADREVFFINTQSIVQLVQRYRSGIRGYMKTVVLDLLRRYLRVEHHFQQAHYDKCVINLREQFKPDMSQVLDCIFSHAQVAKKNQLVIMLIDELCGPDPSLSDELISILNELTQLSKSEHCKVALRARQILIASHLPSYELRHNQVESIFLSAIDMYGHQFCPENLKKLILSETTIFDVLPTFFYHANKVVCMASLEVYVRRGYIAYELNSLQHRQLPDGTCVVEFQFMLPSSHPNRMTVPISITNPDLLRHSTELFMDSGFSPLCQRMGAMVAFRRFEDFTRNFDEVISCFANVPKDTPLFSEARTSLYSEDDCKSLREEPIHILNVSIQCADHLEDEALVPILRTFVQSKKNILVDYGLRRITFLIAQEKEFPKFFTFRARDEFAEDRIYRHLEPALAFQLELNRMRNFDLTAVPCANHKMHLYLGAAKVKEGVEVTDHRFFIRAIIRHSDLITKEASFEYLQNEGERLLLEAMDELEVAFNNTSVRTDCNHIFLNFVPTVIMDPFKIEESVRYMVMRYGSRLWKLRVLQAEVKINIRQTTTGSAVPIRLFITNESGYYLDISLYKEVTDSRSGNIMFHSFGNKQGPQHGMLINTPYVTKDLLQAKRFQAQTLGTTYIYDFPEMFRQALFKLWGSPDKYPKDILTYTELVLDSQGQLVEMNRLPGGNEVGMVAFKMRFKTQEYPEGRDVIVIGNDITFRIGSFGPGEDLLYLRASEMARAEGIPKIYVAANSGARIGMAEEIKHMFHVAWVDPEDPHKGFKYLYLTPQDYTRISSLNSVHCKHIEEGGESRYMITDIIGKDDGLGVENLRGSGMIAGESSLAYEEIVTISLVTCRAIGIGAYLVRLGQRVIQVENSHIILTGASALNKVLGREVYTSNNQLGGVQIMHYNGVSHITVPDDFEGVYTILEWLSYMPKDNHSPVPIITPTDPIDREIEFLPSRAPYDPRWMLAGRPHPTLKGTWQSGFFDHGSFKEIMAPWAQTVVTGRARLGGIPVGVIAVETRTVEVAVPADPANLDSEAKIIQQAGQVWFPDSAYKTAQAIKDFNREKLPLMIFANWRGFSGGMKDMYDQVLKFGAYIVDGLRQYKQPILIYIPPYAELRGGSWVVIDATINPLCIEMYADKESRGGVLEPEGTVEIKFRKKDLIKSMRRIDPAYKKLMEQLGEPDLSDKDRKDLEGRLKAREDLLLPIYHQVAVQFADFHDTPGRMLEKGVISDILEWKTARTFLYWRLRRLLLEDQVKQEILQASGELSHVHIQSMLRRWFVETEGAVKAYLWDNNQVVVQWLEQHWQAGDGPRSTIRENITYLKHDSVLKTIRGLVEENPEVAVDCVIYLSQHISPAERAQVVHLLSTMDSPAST
Description: 14CO2 fixation ACC activity assay, ACC2sv1. The format is biochemical. The following applies: 37° C., 40 minutes, pH 7.5, 20 mM citrate; read-out: Km of ACC2sv1 against substrate.
Description: as §3, §1, §2

In assay [3] the test system is ACC1. The following applies: cited from earlier work.
For assay [4], the system named is ACC2. The following applies: cited from earlier work.
The test system of assay [5] is fatty acid synthesis and fatty acid oxidation. The following applies: cited from earlier work.
For assay [6] the following is noted: rat model of diabetic dyslipidemia; cited from earlier work.
Another assay concerns ACC. The settings on record: ESP 55016 converted to ESP 55016-CoA; cited from earlier work.

T2 sequence (O00763 whole entry): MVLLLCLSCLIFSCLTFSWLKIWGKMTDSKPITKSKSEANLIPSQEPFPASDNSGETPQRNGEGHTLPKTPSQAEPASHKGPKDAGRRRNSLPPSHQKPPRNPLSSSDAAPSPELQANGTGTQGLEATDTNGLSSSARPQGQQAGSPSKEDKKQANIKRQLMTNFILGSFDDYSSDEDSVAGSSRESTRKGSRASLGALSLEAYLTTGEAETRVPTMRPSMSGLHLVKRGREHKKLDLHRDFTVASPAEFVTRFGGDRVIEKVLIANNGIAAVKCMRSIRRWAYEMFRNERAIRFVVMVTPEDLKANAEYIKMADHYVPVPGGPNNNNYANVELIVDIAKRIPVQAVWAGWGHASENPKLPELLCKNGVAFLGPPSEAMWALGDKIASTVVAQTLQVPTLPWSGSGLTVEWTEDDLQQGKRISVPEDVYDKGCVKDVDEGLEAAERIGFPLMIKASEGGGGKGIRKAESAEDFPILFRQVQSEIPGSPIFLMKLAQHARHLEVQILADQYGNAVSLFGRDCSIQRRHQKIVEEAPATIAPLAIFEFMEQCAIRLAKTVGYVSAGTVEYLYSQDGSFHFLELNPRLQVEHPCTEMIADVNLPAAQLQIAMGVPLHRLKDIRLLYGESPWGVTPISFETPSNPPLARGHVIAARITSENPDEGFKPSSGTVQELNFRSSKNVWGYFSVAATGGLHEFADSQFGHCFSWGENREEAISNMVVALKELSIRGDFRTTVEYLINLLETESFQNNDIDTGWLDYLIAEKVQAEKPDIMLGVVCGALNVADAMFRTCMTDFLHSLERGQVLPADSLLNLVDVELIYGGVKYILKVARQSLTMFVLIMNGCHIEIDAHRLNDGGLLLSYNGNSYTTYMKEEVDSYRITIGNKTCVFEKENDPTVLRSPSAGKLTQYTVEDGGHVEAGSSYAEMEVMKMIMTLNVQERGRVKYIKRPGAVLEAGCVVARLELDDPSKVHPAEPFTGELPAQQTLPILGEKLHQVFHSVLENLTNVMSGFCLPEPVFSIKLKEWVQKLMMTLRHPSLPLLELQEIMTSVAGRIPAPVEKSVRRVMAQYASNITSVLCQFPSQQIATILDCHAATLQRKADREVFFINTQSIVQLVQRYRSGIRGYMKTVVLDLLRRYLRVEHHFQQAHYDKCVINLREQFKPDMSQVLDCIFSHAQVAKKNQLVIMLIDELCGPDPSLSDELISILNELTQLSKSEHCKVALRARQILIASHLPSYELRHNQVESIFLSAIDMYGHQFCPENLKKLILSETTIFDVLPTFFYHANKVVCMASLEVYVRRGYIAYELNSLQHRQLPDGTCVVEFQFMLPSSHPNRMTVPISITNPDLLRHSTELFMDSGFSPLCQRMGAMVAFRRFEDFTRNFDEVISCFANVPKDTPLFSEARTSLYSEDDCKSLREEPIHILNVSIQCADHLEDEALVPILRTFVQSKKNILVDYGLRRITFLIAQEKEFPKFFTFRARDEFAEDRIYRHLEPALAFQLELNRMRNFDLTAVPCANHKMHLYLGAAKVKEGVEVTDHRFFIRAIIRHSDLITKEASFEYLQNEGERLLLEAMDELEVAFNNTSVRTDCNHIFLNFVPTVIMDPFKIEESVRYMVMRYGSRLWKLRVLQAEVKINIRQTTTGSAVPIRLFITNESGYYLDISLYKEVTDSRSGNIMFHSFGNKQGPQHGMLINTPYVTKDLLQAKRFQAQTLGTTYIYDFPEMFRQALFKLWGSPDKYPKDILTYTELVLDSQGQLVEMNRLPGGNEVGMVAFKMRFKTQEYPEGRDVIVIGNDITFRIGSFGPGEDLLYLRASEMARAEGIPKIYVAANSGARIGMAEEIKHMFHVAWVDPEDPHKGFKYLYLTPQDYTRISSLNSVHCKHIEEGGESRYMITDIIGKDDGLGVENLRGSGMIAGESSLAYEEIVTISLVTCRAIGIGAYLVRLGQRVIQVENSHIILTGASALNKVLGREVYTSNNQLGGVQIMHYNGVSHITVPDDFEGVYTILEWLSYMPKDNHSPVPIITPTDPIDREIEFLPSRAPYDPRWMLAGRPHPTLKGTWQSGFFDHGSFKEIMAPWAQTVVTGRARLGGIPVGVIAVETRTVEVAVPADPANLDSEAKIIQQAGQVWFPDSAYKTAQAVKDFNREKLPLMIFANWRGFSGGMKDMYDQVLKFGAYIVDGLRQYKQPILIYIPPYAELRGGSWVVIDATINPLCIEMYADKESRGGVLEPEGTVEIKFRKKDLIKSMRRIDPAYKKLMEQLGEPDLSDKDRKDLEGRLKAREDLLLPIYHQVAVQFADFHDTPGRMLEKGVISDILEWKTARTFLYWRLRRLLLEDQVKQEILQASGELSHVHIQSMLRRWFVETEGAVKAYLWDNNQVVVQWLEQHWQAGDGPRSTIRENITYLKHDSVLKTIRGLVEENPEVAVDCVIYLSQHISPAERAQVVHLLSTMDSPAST

As for `CC(Oc1ccc(Oc2ncc(C(F)(F)F)cc2Cl)cc1)C(=O)O` (centres unmarked) [haloxyfop], the “Inhibition of ACCs from plants” value in the assay with ACCs from plants is “potent inhibitors”. For orientation: Km means the substrate concentration at which the rate is half of its maximum. For the compound `Nc1ncnc2c1ncn2[C@@H]1O[C@H](COP(=O)(O)OP(=O)(O)OP(=O)(O)O)[C@@H](O)[C@H]1O` [ATP], the results for the Km at ACC1 [1], at ACC2 [2] and on ACC2sv1 were 54 µM, 44 µM and 109 µM, respectively. `CC(Oc1ccc(Oc2ccc(Cl)cc2Cl)cc1)C(=O)O` (centres unmarked) [diclofop]: in the assay with ACCs from plants, the “Inhibition of ACCs from plants” value is “potent inhibitors”. For `CCC/C(=N\OCC)C1=C(O)CC(CC(C)SCC)CC1=O` (centres unmarked) [sethoxydim], the “Inhibition of ACCs from plants” value with ACCs from plants is on record as “potent inhibitors”.

Turning to `O=C(O)O` [HCO3], the Km at ACC1 [1] came to 6470 µM; at ACC2 [2] it was 2890 µM; at ACC2sv1, 6510 µM. On to `O=C(c1c2ccccc2cc2ccccc12)N1CCC(N2CCC[C@@H](C(=O)N3CCOCC3)C2)CC1` [CP-640186], for which the “Inhibition of ACC1” value with ACC1 [3] was “inhibit”. Moreover, the “Inhibition of ACC2” value with ACC2 [4] is “inhibit”. `CC(C)(CCCCCC(O)CCCCCC(C)(C)C(=O)O)C(=O)O` [ESP 55016]: in [5], the Fatty acid oxidation entry is “enhanced” and the Fatty acid synthesis entry is “inhibited”. Further, the Serum lipid levels entry in assay [6] is listed as “favorably alter”.

For the compound `CC(C)(CCCCCC(O)CCCCCC(C)(C)C(=O)SCCNC(=O)CCNC(=O)[C@H](O)C(C)(C)COP(=O)(O)OP(=O)(O)OC[C@H]1O[C@@H](n2cnc3c(N)ncnc32)[C@H](O)[C@@H]1OP(=O)(O)O)C(=O)O` (some centres unmarked) [ESP 55016-CoA], in the assay on ACC, the “Inhibition of ACC activity” value is reported as “directly inhibits”.

Consider `CCN(CC)C(=O)[C@@H]1CCCN(C2CCN(C(=O)c3c4ccccc4cc4ccccc34)CC2)C1` [CP-610431], for which the “Inhibition of ACC1” value in the assay on ACC1 [3] is recorded as “inhibit”. Moreover, the “Inhibition of ACC2” value with ACC2 [4] is given as “inhibit”.
